Experimental data reported in publication PMC4184574, “Enantioselectivity in the cytochrome P450-dependent conversion of tegafur to 5-fluorouracil in human liver microsomes” (Pharmacology Research & Perspectives, 2013).
“Also recorded” adds a separate entry of the source. Structures can show the parent of a compound that is named as a salt. Values belong to the compound of their own block, whether it stands above or below them.

Tests used:
[1] = Enantioselective conversion of FT to 5-FU in human hepatic S9 with CYP and TPase inhibitors; type: in vitro ADME; conditions: FT enantiomer 0.1 mmol/L, 1-aminobenzotriazole 1 mmol/L, TPI 10 μmol/L
Description: Insect microsomes expressing only NADPH-P450 oxidoreductase and cytochrome b5 were also used as control. These enzymes were stored at −80°C until use.
(§1) Metabolic reaction by S9 and cytosol (each 2 mg protein/mL) was carried out in 100 mmol/L phosphate (pH 7.4) because TPase requires phosphate ions for catalyzing the reaction. In some cases, insect microsomes expressing recombinant CYP isoforms (20 pmol/mL) were added to the incubation mixtures in either 50, 100 mmol/L phosphate (pH 7.4) or 100 mmol/L Tris (pH 7.4), depending on supplier's recommendation. Microsomal protein concentrations of all cDNA-expressed CYPs were adjusted to 0.5 mg protein/mL by adding control microsomes expressing NADPH-P450 oxidoreductase and cytochrome b5. The reaction for the assay of FT metabolism was initiated by adding the substrate, following preincubation for 5 min at 37°C. After incubation at 37°C, the reaction was stopped by adding three volumes of ice-cold acetonitrile. The incubation times of microsomes, cytosol, and S9 were 15, 15, and 30 min, respectively. After centrifugation, the supernatant was collected and stored at −80°C until the determination of 5-FU. Because a small portion of FT is nonenzymatically converted to 5-FU, the content of 5-FU spontaneously formed was subtracted from total yield obtained after incubation to correct the activity. The spontaneous degradation of FT to 5-FU was evaluated using enzymes inactivated by heating them at 100°C for 5 min.
The effects of inhibitors of CYP isoforms and TPase, and anti-CYP antibodies on 5-FU formation from FT enantiomers catalyzed by human hepatic preparations were evaluated. […] 1-Aminobenzotriazole (1 mmol/L) and TPI (10 μmol/L) were used as nonselective inhibitors of CYP isoforms and TPase, respectively. […] Inhibitors were dissolved in methanol and diluted with 100 mmol/L phosphate (pH 7.4) or 100 mmol/L Tris (pH 7.4) so that the final concentration of solvent in the incubation mixture was 0.5%. Methanol was also added to the control at the same concentration as the conditions with inhibitors. Inhibitory effects of anti-CYP antibodies were examined by preincubating microsomes with the antibodies for 10 min on ice. Each polyclonal anti-CYP antibody was used at a concentration ranging 10–40 μL/mg microsomal protein according to the procedure recommended by the supplier. The reaction was performed similarly as described above, except for evaluating the inhibitory effect of furafylline.
(§2) Concentration of 5-FU was determined using a LC/MS/MS system. […] For quantification of 5-FU, the calibration curves were linear over the range 2–1000 ng/mL. […]

[2] = tested on: CYP2A6 (tranylcypromine), CYP2E1 (diethyldithiocarbamate); CYP-mediated 5-FU formation from S-FT; assay: Effects of CYP-selective inhibitors on 5-FU formation from FT enantiomers in pooled human hepatic microsomes; type: in vitro ADME; conditions: human, pooled human liver microsomes, pH 7.4, probe S-FT (S-tegafur) 30 μmol/L, 5-FU formation
Description: as §1
(§3) The effects of inhibitors of CYP isoforms and TPase, and anti-CYP antibodies on 5-FU formation from FT enantiomers catalyzed by human hepatic preparations were evaluated. In inhibition assays, FT enantiomers were used at the concentrations of 30 μmol/L. 1-Aminobenzotriazole (1 mmol/L) and TPI (10 μmol/L) were used as nonselective inhibitors of CYP isoforms and TPase, respectively. […] Inhibitors were dissolved in methanol and diluted with 100 mmol/L phosphate (pH 7.4) or 100 mmol/L Tris (pH 7.4) so that the final concentration of solvent in the incubation mixture was 0.5%. Methanol was also added to the control at the same concentration as the conditions with inhibitors. Inhibitory effects of anti-CYP antibodies were examined by preincubating microsomes with the antibodies for 10 min on ice. Each polyclonal anti-CYP antibody was used at a concentration ranging 10–40 μL/mg microsomal protein according to the procedure recommended by the supplier. The reaction was performed similarly as described above, except for evaluating the inhibitory effect of furafylline.
(§4) Concentration of 5-FU was determined using a LC/MS/MS system. The analytical system consisted of a HP1100 liquid chromatograph (Agilent Technologies, CA) coupled with an API4000 triple-quadrupole mass spectrometer (Applied Biosystems, CA) equipped with Turbo V source and ESI interface. Sample separation was performed using an Unison UK-Amino column (2.0 mm i.d. × 100 mm, 3 μm; Imtakt, Kyoto, Japan) at a flow rate of 0.2 mL/min at 40°C. The mobile phase consisted of 10 mmol/L ammonium acetate/acetonitrile 10:90 (v/v). […] For quantification of 5-FU, the calibration curves were linear over the range 2–1000 ng/mL.
(§5) For evaluating the effect of furafylline, the preincubation of microsomes with an inhibitor and an NADPH-generating system for 20 min was performed, followed by the enantioselective metabolic reaction. Opened and closed bars represent 5-FU formation rate from R- and S-FT, respectively.

[3] = tested on: CYP2A6 (tranylcypromine), CYP2E1 (diethyldithiocarbamate); CYP-mediated 5-FU formation from R-FT; assay: as above; type: in vitro ADME; conditions: human, pooled human liver microsomes, pH 7.4, probe R-FT (R-tegafur) 30 μmol/L, 5-FU formation
Description: as §1, §3, §4, §5

[4] = as above; type: in vitro ADME; conditions: pooled human hepatic microsomes; for effect on 5-FU formation from R-FT (in words): furafylline 25, quinidine 1, ketoconazole 1 μmol/L; for effect on 5-FU formation from S-FT (in words): furafylline 25, ticlopidine 20, quinidine 1, ketoconazole 1 μmol/L
Description: as §1, §3, §4, §5

CYP2A6 = biological target: T1, CYP2A6 (Homo sapiens, UniProt P11509); assay: 5-FU formation from FT enantiomers by cDNA-expressed CYP2A6 (kinetics, velocity, RAF contribution); conditions: CYP2A6; RAF method; 30 μmol/L
T1 sequence (P11509 1-494): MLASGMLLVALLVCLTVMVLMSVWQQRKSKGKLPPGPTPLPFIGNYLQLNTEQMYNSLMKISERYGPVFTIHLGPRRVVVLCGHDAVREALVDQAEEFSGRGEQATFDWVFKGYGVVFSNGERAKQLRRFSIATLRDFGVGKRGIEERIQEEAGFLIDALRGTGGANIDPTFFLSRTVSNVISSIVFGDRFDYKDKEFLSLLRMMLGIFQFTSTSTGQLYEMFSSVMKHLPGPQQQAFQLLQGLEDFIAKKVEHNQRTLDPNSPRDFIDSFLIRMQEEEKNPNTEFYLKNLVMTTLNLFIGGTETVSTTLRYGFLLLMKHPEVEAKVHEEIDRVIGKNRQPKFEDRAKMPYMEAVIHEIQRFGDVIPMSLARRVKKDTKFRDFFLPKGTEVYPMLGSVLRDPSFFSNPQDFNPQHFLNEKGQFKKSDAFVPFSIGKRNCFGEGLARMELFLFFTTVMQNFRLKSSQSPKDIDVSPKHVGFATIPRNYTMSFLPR
Source text: Human hepatic 9000g supernatant (S9) and cytosolic fraction were purchased from XenoTech, LLC. (pooled preparations from 20 donors; Kansas City, KS). Human hepatic microsomes from five individuals (HG32, HH94, HH81, HH74, and HH31), a pooled preparation from 150 donors, and microsomes prepared from insect cell lines expressing CYP1A2, 2A6, 2B6, 2C8, 2C9, 2C19, 2D6, 2E1, and 3A4 were purchased from BD Gentest. Insect microsomes expressing only NADPH-P450 oxidoreductase and cytochrome b5 were also used as control. These enzymes were stored at −80°C until use.
as §1, §4
Kinetic studies were performed using microsomes from five human livers (HG32, HH94, HH81, HH74, and HH31), cDNA-expressed CYP isoforms, or pooled human hepatic cytosol. In determining kinetic parameters, FT concentration ranged from 0.03 to 10 mmol/L. All reactions were performed in a linear range of 5-FU formation with respect to protein or CYP concentrations and incubation time.
Intrinsic clearance (CLint) was calculated as a ratio of V/S where V and S were the metabolite formation rate and the concentration of a probe substrate for CYP isoform, respectively, when the substrate concentration was well below the Km value. The RAF for each CYP isoform was calculated according to equation (3) (Venkatakrishnan et al. [2000]). [drawing 3] (3) n = 1A2, 2A6, 2C19, or 2E1.
The contribution of CYPn to the metabolism of R- and S-FT at their concentration of 30 μmol/L was subsequently calculated using equation (4). [drawing 4] (4) VCYPn = 5-FU formation rate in cDNA-expressed CYPn.

[5] = parameters: method as in Damle et al. [2001]; conditions: after oral administration; ref Damle et al. [2001]; cited from earlier work
[6] = tested on: recombinant human CYP2B6, 2C8, 2C9, 2D6, and 3A4; assay: 5-FU formation from FT enantiomers by other cDNA-expressed CYP isoforms; type: in vitro ADME; conditions: other isoforms than CYP1A2, 2A6, 2C19, 2E1; FT enantiomers 0.03 mmol/L; 20 pmol CYP/mL
Description: (pooled preparations from 20 donors; Kansas City, KS). […] Insect microsomes expressing only NADPH-P450 oxidoreductase and cytochrome b5 were also used as control. These enzymes were stored at −80°C until use.
5-FU formed from FT was subjected to extensive metabolism by dihydropyrimidine dehydrogenase (DPD) contaminating human hepatic preparations. Therefore, a potent DPD inhibitor, CDHP, was always added to avoid the unexpected loss of 5-FU (Ikeda et al. [2000]; Yamamiya et al. [2010]). Incubation mixture for hepatic microsomal metabolism contained FT, microsomes (1 mg protein/mL), 0.1 mmol/L CDHP, and an NADPH-generating system consisting of 1.3 mmol/L β-NADP^+, 3.3 mmol/L glucose-6-phosphate, 3.3 mmol/L magnesium chloride, and 0.4 units glucose-6-phosphate dehydrogenase in 100 mmol/L Tris (pH 7.4). Metabolic reaction by S9 and cytosol (each 2 mg protein/mL) was carried out in 100 mmol/L phosphate (pH 7.4) because TPase requires phosphate ions for catalyzing the reaction. […] The spontaneous degradation of FT to 5-FU was evaluated using enzymes inactivated by heating them at 100°C for 5 min.
as §2

Structure (SMILES): Nn1nnc2ccccc21 [1-aminobenzotriazole, 1-Aminobenzotriazole]
- effect on 5-FU formation from R-FT (in words) [1]: markedly reduced; also recorded: strong inhibitory effect
- effect on 5-FU formation from S-FT (in words) [1]: markedly reduced; also recorded: strong inhibitory effect

Structure (SMILES): N[C@@H]1C[C@H]1c1ccccc1 (racemic) [tranylcypromine, tranylcypromine hydrochloride]
- inhibition at 15 min ([2]; pooled human hepatic microsomes, S-FT 30 μmol/L, tranylcypromine 5 μmol/L, diethyldithiocarbamate 100 μmol/L): ~90%
- inhibition at 15 min ([3]; pooled human hepatic microsomes, R-FT 30 μmol/L, tranylcypromine 5 μmol/L, diethyldithiocarbamate 100 μmol/L): ~90%

Structure (SMILES): Cl.N=C1CCCN1Cc1[nH]c(=O)[nH]c(=O)c1Cl [TPI, 5-chloro-6-(2-iminopyrrolidin-1-yl) methyl-2, 4 (1H,3H)-pyrimidinedione hydrochloride]
- effect on 5-FU formation from R-FT (in words) [1]: only a minor effect; also recorded: only a slight effect
- effect on 5-FU formation from S-FT (in words) [1]: only a minor effect; also recorded: not observed

Structure (SMILES): CC(=O)N1CCN(c2ccc(OCC3COC(Cn4ccnc4)(c4ccc(Cl)cc4Cl)O3)cc2)CC1 (centres unmarked) [ketoconazole]
- effect on 5-FU formation from R-FT (in words) ([4]; R-FT 30 μmol/L): no effect
- effect on 5-FU formation from S-FT (in words) ([4]; S-FT 30 μmol/L): no effect

Structure (SMILES): O=c1[nH]c(=O)n(C2CCCO2)cc1F (centres unmarked) [FT, 5-fluoro-1-(2-tetrahydrofuryl)-2, 4 (1H, 3H)-pyrimidinedione, reference compound]
- CYP contribution (CYP2A6): over 85%
- oral bioavailability [5]: approximately 100%
- activity for the enantioselective metabolism of FT (in words) [6]: negligible activity

Continued, values first:

- effect on 5-FU formation from R-FT (in words) ([4]; R-FT 30 μmol/L): no effect
- effect on 5-FU formation from S-FT (in words) ([4]; S-FT 30 μmol/L): no effect
Structure (SMILES): Cc1nc2c([nH]1)c(=O)n(C)c(=O)n2Cc1ccco1 [furafylline]

- amount of 5-FU formed from R-FT, % of the control value ([4]; R-FT 30 μmol/L, diethyldithiocarbamate 100 μmol/L): 73 % of the control value
- amount of 5-FU formed from S-FT, % of the control value ([4]; S-FT 30 μmol/L, diethyldithiocarbamate 100 μmol/L): 64 % of the control value
- inhibition at 15 min [2]: 34%
- inhibition at 15 min [3]: 27%
Structure (SMILES): CCN(CC)C(=S)S [diethyldithiocarbamate, sodium diethyldithiocarbamate]
